Results on one compound are retold here after patent US20170137433A1, “CRYSTALLINE, ANHYDROUS FORMS OF OXYMORPHONE HYDROCHLORIDE” (Endo Pharmaceuticals Inc., priority 2011, published 2017).

A short description of this data set: Solid-form stability of the polymorph (heat treatment / storage observation). The format is physicochemical. The note with it: at room temperature and at elevated temperatures; solid form obtained by heating at 200° C. for 3-4 hours in a drying oven. As to the method: This polymorph was obtained by a heat treatment of either the above-described polymorph mixture or of oxymorphone hydrochloride monohydrate at 200° C. for a period of 3-4 hours in a drying oven.

Structures can show the parent of a compound that is named as a salt.

On to `CN1CC[C@]23c4c5ccc(O)c4O[C@H]2C(=O)CC[C@@]3(O)[C@H]1C5` [second polymorph, crystalline, anhydrous hydrochloride salt of 4,5α-epoxy-3,14-dihydroxy-17-methylmorphinan-6-one], for which the polymorphic form stability result was “stable at room temperature and at elevated temperatures”.
